Measured values from publication PMC5915149, “The role of oxidative stress in activity of anticancer thiosemicarbazones” (Oncotarget, 2018).
Read-outs that look alike come from different tables or passages of the source.

Legend:
Type in all cases: cell-based, human
MCF-7 = experiment: MTS antiproliferative assay, MCF-7 (with or without added metal ions)
Protocol: The cells were seeded in 96-well plates (Nunc) at a density of 3,500 cells/well (HCT116 and MCF-7) and 3,000 cells/well (NHDF) and incubated at 37° C for 24 h. The assay was performed following a 96 h incubation with varying concentrations of the compounds that were being tested. Then, 20 µL of CellTiter 96® AQueous One Solution-MTS (Promega) was added to each well (with 100 µL DMEM without phenol red) and incubated for 1 h at 37° C. The optical densities of the samples were analyzed at 490 nm using a multi-plate reader (Synergy 4, Bio Tek). Results were expressed as a percentage of the control and calculated as the inhibitory concentration (IC50) values (using GraphPad Prism 5). The IC50 parameter was defined as the compound concentration that was necessary to reduce the proliferation of cells to 50% of the untreated control. Each individual compound was tested in triplicate in a single experiment with each experiment being repeated three or four times.
The HCT116 and MCF-7 cells were seeded in 96-well plates (Nunc) at a density of 3,500 cells/well and incubated at 37° C for 24 h. The MTS assay was performed following a 96 h incubation with varying concentrations of the tested compounds. Additionally, a 20 µM solution of CuSO4, FeSO4 or FeCl3 was added into wells with the tested compounds. The results were expressed as a percentage of the control and calculated as the inhibitory concentration (IC50) values using GraphPad Prism 5. Each individual compound was tested in triplicate in a single experiment with each experiment being repeated three times.

HCT116 cells = experiment: Time dependent measurement of ROS level; conditions: 1 µM; 3, 6, 9, 12, 24 h
Protocol: To determine the intracellular levels of ROS, HCT116 cells were seeded onto black 96-well plates (Corning) at a density of 9,000 cells/well and incubated at 37° C. After an overnight incubation, the solutions of the tested compounds: 1a-c, 2 a-b, 3 a-c, Dp44mT (1 μM) and DOX (5 μM) were added and incubated for 3, 6, 9, 12, and 24 h in a kinetic experiment. The generation of ROS was measured using a CellROX® Green Reagent (Molecular Probes™). Additionally, the quantity of cells in each well was determined using Hoechst 33342 (Molecular Probes™). The solutions of the tested compounds were removed and 100 µL of CellROX Green Reagent and Hoechst 33342 at a final concentration of 5 μM were added to each well. Then, the cells were incubated for 30 min at 37° C. The fluorescence was measured using a multi-plate reader (Synergy 4, Bio Tek) at 485 nm excitation and a 520 nm emission for CellROX Green Reagent and a 345 nm excitation laser and a 485 nm emission filter for Hoechst 33342. The experiments were performed three to four times. ROS levels were expressed as the percentage of the control cells level.

CAT = experiment: mRNA expression (Real-Time PCR) of CAT; conditions: HCT116, TSC 1 µM, after the first 12 h
Protocol: (§1) The HCT116 cells were seeded in 3 cm Petri dishes (Nunc) at a density of 0.5·10^6 cells/well and incubated overnight. Next, the medium was removed and solutions of TSC (1 μM) and DOX (5 μM) were added. After 12 or 24 h, total RNA was isolated from the cells using TRIzol Reagent (Ambion) according to the manufacturer’s instructions. cDNA synthesis was performed with 5 μg of total RNA using a GoScript™ Reverse Transcriptase kit (Promega) and Oligo(dT)23 Primers (Sigma). The Real-Time PCR was performed with a CTX96 Touch™ Real-Time PCR Detection System (Biorad) in a 20 μL reaction volume. The reaction consisted of PowerUp™ SYBR® Green Master Mix (Applied Biosystems), a primer pair mix (0.5 μM each) and 1 μL of cDNA. All primer pair sequences were purchased from Sigma-Aldrich and are listed in Supplementary Table 2. The experiment was performed under the following conditions: initial denaturation at 95° C for 120 sec; followed by 40 denaturation cycles at 95° C, 15 sec; annealing (primer-specific temperature for 30 sec) and extension at 72° C for 60 sec. Data was analyzed based on a comparison of the expression of the target genes to a reference gene – β-actin, using the 2^–ΔΔCT method. The experiments were performed at least three times.

Ndrg1 = experiment: mRNA expression (Real-Time PCR) of Ndrg1; conditions: HCT116, TSC 1 µM, 12 h
Protocol: as §1

IC50 (MCF-7; 96 h, 20 µM CuSO4 added, read-out: Activity - IC50 MCF-7+ Cu^2+): 1.55 ± 0.55 nM
IC50 (MCF-7; 96 h, 20 µM FeCl3 added, read-out: Activity - IC50 MCF-7+ Fe^3+): 8.96 ± 1.81 nM
IC50 (MCF-7; 96 h incubation, MTS, read-out: Activity - IC50 MCF-7): 12 ± 2.04 nM
SMILES: S=C(NN=C(c1ccccn1)c1ccccn1)N1CCN(c2ccccc2)CC1 [Compound 3a]
improvement in cytotoxicity after interacting with Cu^2+ (MCF-7; MCF-7 cells, 20 µM CuSO4): eight-fold
level of ROS, normalized to untreated cells (HCT116 cells): strongest effect
mRNA expression of CAT (CAT): higher
mRNA expression of Ndrg1 (Ndrg1): significant increase
